From patent US11279733B2, “Peptide antibiotics” (priority 2017, dated 2022)
Values after ≈ are worked out from the molar mass of the structure shown. Read-outs that look alike come from different tables or passages of the source. Positions of bridges follow the written chain, without caps; N, C: chain ends. Non-standard residues stand in square brackets, D forms with d. Residues, ends and D or L forms follow the SMILES beside them. *: point of attachment. Decanoyl(3R-OH) = CCCCCCC[C@@H](O)CC(=O)*; dDab = NCC[C@@H](N)C(=O)O; Dab = NCC[C@H](N)C(=O)O

Columns and labels:
[1] = system: A. baumannii ATCC 19606; conditions: ATCC 19606
In short: (§1)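 Mid-log cultures grown in Mueller Hinton broth at 37° C were tested by 2-fold broth microdilution at 5×10^5 CFU/mL final. Compounds were dissolved in water and tested over a final range of 32 to 0.015 μg/mL.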

[2] = system: A. baumannii GN_093 PmxR; conditions: GN 093 PmxR
In short: as §1

[3] = system: E. coli ATCC 25922; conditions: ATCC 25922
In short: as §1

[4] = system: K. pneumoniae ATCC 13883; conditions: ATCC 13883
In short: as §1

[5] = system: K. pneumoniae ATCC 700603, MDR; conditions: ATCC 700603
In short: as §1

[6] = system: K. pneumoniae ATCC BAA-2146, NDM-1 pos; conditions: ATCC BAA-2146
In short: as §1

[7] = system: K. pneumoniae GN_102 PmxR; conditions: GN 102 PmxR
In short: as §1

[8] = system: K. pneumoniae GN_106, PmxR; conditions: GN 106, PmxR
In short: as §1

[9] = system: P. aeruginosa ATCC 27853; conditions: ATCC 27853
In short: as §1

[10] = system: P. aeruginosa GN_043, PmxR
In short: as §1

[11] = system: P. aeruginosa GN_105, PmxR; conditions: GN 105, PmxR
In short: as §1

[12] = system: S. aureus ATCC 25923, MSSA; conditions: ATCC 25923
In short: as §1

[13] = in vitro; conditions: human
Method: Cytotoxicity of the synthesised peptides was evaluated by comparison with commercially available colistin (polymyxin E), polymyxin B (Sigma chemical Co., St. Louis, Mo., U.S.A.) and synthetic octapeptin C4 by conducting lactate dehydrogenase (LDH) assay. CC50 values calculated based on curve fitting of dose dependent inhibition of cell growth represented the cytotoxicity of the peptide. Human kidney 2 (HK2) cells were seeded as 2000 cells per well in a 384 well cell culture plate in a final volume of 20 μL in DMEM/F12 medium (Invitrogen #11330057), in which 10% of FBS was added. Cells were incubated for 24 hours at 37° C., 5% CO2 to allow cells to attach to the plates. Similar conditions were employed for HEK293 and HepG2 cytotoxicity assays.
Colistin and polymyxin B were tested from a range of 2 mM to 0.9 μM. 120 μL of the 1 mM stock solutions in water of each synthesised peptide were freeze-dried and processed for LDH assay. After freeze-dry procedure, the compounds were reconstituted into 600 μM solutions using culture media. All tested compounds were diluted from 600 μM to 0.27 μM in 3-fold dilutions. Then 20 μL of each dilution was added into 20 uL of culture medium in quadruplicate to reach the final concentrations. The cells were incubated with the compounds for 24 h at 37° C., 5% CO2. After the incubation, 5 μL of culture medium was added to 50 μL of LDH assay buffer and incubated for 1 h at room temperature. The absorbance was read at 450 nm using Polarstar. The data was then analysed by Prism software. […] Nephrotoxicity Assessment in Human Proximal Tubule Cells.

## CCCCCCC[C@@H](O)CC(=O)N[C@H](CCN)C(=O)N[C@H]1CCNC(=O)[C@H](CC(C)C)NC(=O)[C@H](CCN)NC(=O)[C@H](CCN)NC(=O)[C@H](C)NC(=O)[C@@H](Cc2ccccc2)NC(=O)[C@H](CCN)NC1=O [compound 4946, 3(R)OH-nC9CO-D-Dab-cyc[L-Dab-L-Dab-D-Phe-L-Ala-L-Dab-L-Dab-L-Leu]] ({Decanoyl(3R-OH)}-[dDab][Dab][Dab][dF]A[Dab][Dab]L; lactam 2-C)
[1]
  MIC A. baumannii ATCC 19606: 16 µg/mL (≈ 16 µM)
[2]
  MIC A. baumannii GN_093 PmxR: 16 µg/mL (≈ 16 µM)
[3]
  MIC E. coli ATCC 25922: 16 µg/mL (≈ 16 µM)
[4]
  MIC K. pneumoniae ATCC 13883: 8 µg/mL (≈ 7.98 µM)
[5]
  MIC K. pneumoniae ATCC 700603, MDR: 8 µg/mL (≈ 7.98 µM)
[6]
  MIC K. pneumoniae ATCC BAA-2146, NDM-1 pos: 8 µg/mL (≈ 7.98 µM)
[7]
  MIC K. pneumoniae GN_102 PmxR: 4 µg/mL (≈ 3.99 µM)
[8]
  MIC K. pneumoniae GN_106, PmxR: 16 µg/mL (≈ 16 µM)
[9]
  MIC P. aeruginosa ATCC 27853: 1 µg/mL (≈ 0.998 µM)
[10]; P. aeruginosa GN_043, PmxR
  MIC P. aeruginosa GN_043, PmxR: 0.5 µg/mL (≈ 0.499 µM)
[11]
  MIC P. aeruginosa GN_105, PmxR: 16 µg/mL (≈ 16 µM)
[12]
  MIC S. aureus ATCC 25923, MSSA: >32 µg/mL
[13]
  CC50 at 24 h: 107 µM

## CCCCCCC[C@@H](O)CC(=O)N[C@H](CCN)C(=O)N[C@H]1CCNC(=O)[C@H](CC(C)C)NC(=O)[C@H](CCN)NC(=O)[C@H](CCN)NC(=O)[C@H](CC(C)C)NC(=O)[C@H](C)NC(=O)[C@H](CCN)NC1=O [compound 4947, 3(R)OH-nC9CO-D-Dab-cyc[L-Dab-L-Dab-L-Ala-L-Leu-L-Dab-L-Dab-L-Leu]] ({Decanoyl(3R-OH)}-[dDab][Dab][Dab]AL[Dab][Dab]L; lactam 2-C)
[1]
  MIC A. baumannii ATCC 19606: >32 µg/mL
[2]
  MIC A. baumannii GN_093 PmxR: >32 µg/mL
[3]
  MIC E. coli ATCC 25922: >32 µg/mL
[4]
  MIC K. pneumoniae ATCC 13883: >32 µg/mL
[5]
  MIC K. pneumoniae ATCC 700603, MDR: >32 µg/mL
[6]
  MIC K. pneumoniae ATCC BAA-2146, NDM-1 pos: >32 µg/mL
[7]
  MIC K. pneumoniae GN_102 PmxR: >32 µg/mL
[8]
  MIC K. pneumoniae GN_106, PmxR: >32 µg/mL
[9]
  MIC P. aeruginosa ATCC 27853: 32 µg/mL (≈ 33 µM)
[10]; P. aeruginosa GN_043, PmxR
  MIC P. aeruginosa GN_043, PmxR: >32 µg/mL
[11]
  MIC P. aeruginosa GN_105, PmxR: >32 µg/mL
[12]
  MIC S. aureus ATCC 25923, MSSA: >32 µg/mL
[13]
  CC50 at 24 h: 213 µM

## CCCCCCC[C@@H](O)CC(=O)N[C@H](CCN)C(=O)N[C@H]1CCNC(=O)[C@H](CC(C)C)NC(=O)[C@H](CCN)NC(=O)[C@H](CCN)NC(=O)[C@H](CC(C)C)NC(=O)[C@@H](Cc2ccccc2)NC(=O)[C@H](C)NC1=O [compound 4948, 3(R)OH-nC9CO-D-Dab-cyc[L-Dab-L-Ala-D-Phe-L-Leu-L-Dab-L-Dab-L-Leu]] ({Decanoyl(3R-OH)}-[dDab][Dab]A[dF]L[Dab][Dab]L; lactam 2-C)
[1]
  MIC, A. baumannii ATCC 19606: >32 µg/mL
[2]
  MIC, A. baumannii Cl Ptyela 10073 4512:2, PmxR: >32 µg/mL
[3]
  MIC, E. coli ATCC 25922: 16 µg/mL (≈ 15.8 µM)
[4]
  MIC, K. pneumoniae ATCC 13883: 16 µg/mL (≈ 15.8 µM)
[5]
  MIC, K. pneumoniae ATCC 700603, MDR: 16 µg/mL (≈ 15.8 µM)
[6]
  MIC, K. pneumoniae ATCC BAA-2146, NDM-1 pos: 8 µg/mL (≈ 7.88 µM)
[7]
  MIC, K. pneumoniae Cl Koprana 10065 0661:1, PmxR: 8 µg/mL (≈ 7.88 µM)
[8]
  MIC, K. pneumoniae Cl 138-16347-20362, PmxR: 16 µg/mL (≈ 15.8 µM)
[9]
  MIC, P. aeruginosa ATCC 27853: 1 µg/mL (≈ 0.985 µM)
[10]; Table 5, polymyxin-resistant
  MIC, P. aeruginosa FADDI-PA070, PmxR: 1 µg/mL (≈ 0.985 µM)
[11]
  MIC, P. aeruginosa PA9704, PmxR: >32 µg/mL
[12]
  MIC, S. Aureus ATCC 25923, MSSA: >32 µg/mL
[13]
  CC50 at 24 h: 112 µM

## CCCCCCC[C@@H](O)CC(=O)N[C@@H](C)C(=O)N[C@H]1CCNC(=O)[C@H](CC(C)C)NC(=O)[C@H](CCN)NC(=O)[C@H](CCN)NC(=O)[C@H](CC(C)C)NC(=O)[C@@H](Cc2ccccc2)NC(=O)[C@H](CCN)NC1=O [compound 4950, 3(R)OH-nC9CO-L-Ala-cyc[L-Dab-L-Dab-D-Phe-L-Leu-L-Dab-L-Dab-L-Leu]] ({Decanoyl(3R-OH)}-A[Dab][Dab][dF]L[Dab][Dab]L; lactam 2-C)
[1]
  MIC, A. baumannii ATCC 19606: >32 µg/mL
[2]
  MIC A. baumannii GN_093 PmxR: >32 µg/mL
[3]
  MIC, E. coli ATCC 25922: 32 µg/mL (≈ 31.5 µM)
[4]
  MIC, K. pneumoniae ATCC 13883: 16 µg/mL (≈ 15.8 µM)
[5]
  MIC, K. pneumoniae ATCC 700603, MDR: 16 µg/mL (≈ 15.8 µM)
[6]
  MIC, K. pneumoniae ATCC BAA-2146, NDM-1 pos: 16 µg/mL (≈ 15.8 µM)
[7]
  MIC K. pneumoniae GN_102 PmxR: 8 µg/mL (≈ 7.88 µM)
[8]
  MIC K. pneumoniae GN_106, PmxR: 32 µg/mL (≈ 31.5 µM)
[9]
  MIC, P. aeruginosa ATCC 27853: 16 µg/mL (≈ 15.8 µM)
[10]; Table 6, polymyxin-resistant
  MIC P. aeruginosa GN_043, PmxR: 16 µg/mL (≈ 15.8 µM)
[11]
  MIC P. aeruginosa GN_105, PmxR: 32 µg/mL (≈ 31.5 µM)
[12]
  MIC, S. aureus ATCC 25923, MSSA: >32 µg/mL
[13]
  CC50 at 24 h: 286 µM

## CCCCCCC[C@@H](O)CC(=O)N[C@H](C)C(=O)N[C@H]1CCNC(=O)[C@H](CC(C)C)NC(=O)[C@H](CCN)NC(=O)[C@H](CCN)NC(=O)[C@H](CC(C)C)NC(=O)[C@@H](Cc2ccccc2)NC(=O)[C@H](CCN)NC1=O [compound 4951, 3(R)OH-nC9CO-D-Ala-cyc[L-Dab-L-Dab-D-Phe-L-Leu-L-Dab-L-Dab-L-Leu]] ({Decanoyl(3R-OH)}-[dA][Dab][Dab][dF]L[Dab][Dab]L; lactam 2-C)
[1]
  MIC, A. baumannii ATCC 19606: 32 µg/mL (≈ 31.5 µM)
[2]
  MIC A. baumannii GN_093 PmxR: 32 µg/mL (≈ 31.5 µM)
[3]
  MIC, E. coli ATCC 25922: 16 µg/mL (≈ 15.8 µM)
[4]
  MIC, K. pneumoniae ATCC 13883: 16 µg/mL (≈ 15.8 µM)
[5]
  MIC, K. pneumoniae ATCC 700603, MDR: 8 µg/mL (≈ 7.88 µM)
[6]
  MIC, K. pneumoniae ATCC BAA-2146, NDM-1 pos: 8 µg/mL (≈ 7.88 µM)
[7]
  MIC K. pneumoniae GN_102 PmxR: 4 µg/mL (≈ 3.94 µM)
[8]
  MIC K. pneumoniae GN_106, PmxR: 8 µg/mL (≈ 7.88 µM)
[9]
  MIC, P. aeruginosa ATCC 27853: 8 µg/mL (≈ 7.88 µM)
[10]; Table 6, polymyxin-resistant
  MIC P. aeruginosa GN_043, PmxR: 8 µg/mL (≈ 7.88 µM)
[11]
  MIC P. aeruginosa GN_105, PmxR: 16 µg/mL (≈ 15.8 µM)
[12]
  MIC, S. aureus ATCC 25923, MSSA: 32 µg/mL (≈ 31.5 µM)
[13]
  CC50 at 24 h: 120 µM

## CCCCCCC[C@@H](O)CC(=O)N[C@H](CCN)C(=O)N[C@H]1CCNC(=O)[C@H](CC(C)C)NC(=O)[C@H](CCN)NC(=O)[C@H](CCN)NC(=O)[C@H](CC(C)C)NC(=O)[C@@H](C)NC(=O)[C@H](CCN)NC1=O [compound 5006, 3(R)OH-nC9CO-D-Dab-cyc[L-Dab-L-Dab-D-Ala-L-Leu-L-Dab-L-Dab-L-Leu]] ({Decanoyl(3R-OH)}-[dDab][Dab][Dab][dA]L[Dab][Dab]L; lactam 2-C)
[1]
  MIC A. baumannii ATCC 19606: >32 µg/mL
[2]
  MIC A. baumannii GN_093 PmxR: >32 µg/mL
[3]
  MIC E. coli ATCC 25922: 16 µg/mL (≈ 16.5 µM)
[4]
  MIC K. pneumoniae ATCC 13883: 32 µg/mL (≈ 33 µM)
[5]
  MIC K. pneumoniae ATCC 700603, MDR: >32 µg/mL
[6]
  MIC K. pneumoniae ATCC BAA-2146, NDM-1 pos: 32 µg/mL (≈ 33 µM)
[7]
  MIC K. pneumoniae GN_102 PmxR: 8 µg/mL (≈ 8.26 µM)
[8]
  MIC K. pneumoniae GN_106, PmxR: 32 µg/mL (≈ 33 µM)
[9]
  MIC P. aeruginosa ATCC 27853: 16 µg/mL (≈ 16.5 µM)
[10]; P. aeruginosa GN_043, PmxR
  MIC P. aeruginosa GN_043, PmxR: 8 µg/mL (≈ 8.26 µM)
[11]
  MIC P. aeruginosa GN_105, PmxR: 32 µg/mL (≈ 33 µM)
[12]
  MIC S. aureus ATCC 25923, MSSA: >32 µg/mL
[13]
  CC50 at 24 h: 277 µM
